{"source": "patent US20110020801A1", "about": "“Carboxylesterase-1 Polymorphisms and Methods of Use Therefor” (priority 2007, published 2011)", "key": {"[1]": {"target": "T1, p.Asp260fs CES1 (Homo sapiens, UniProt P23141)", "T1 construct": "a frameshift mutation that alters residues 260-299 and causes early truncation at a premature stop codon; expressed in transfected cells", "T1 sequence (P23141 with tags, fused parts or gaps)": "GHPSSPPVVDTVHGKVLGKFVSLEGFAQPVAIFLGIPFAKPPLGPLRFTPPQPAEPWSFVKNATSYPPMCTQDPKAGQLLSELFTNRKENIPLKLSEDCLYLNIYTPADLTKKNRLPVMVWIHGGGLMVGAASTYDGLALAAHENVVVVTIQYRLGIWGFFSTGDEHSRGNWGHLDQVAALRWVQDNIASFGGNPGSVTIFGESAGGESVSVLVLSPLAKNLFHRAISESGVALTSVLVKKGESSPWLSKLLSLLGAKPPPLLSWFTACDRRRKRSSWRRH", "assay": "MPH hydrolysis to ritalinic acid by S9 of cells expressing p.Asp260fs CES1 (HPLC)", "type": "biochemical", "conditions": "S9 500 μg/ml, even at very high S9 concentration (2 mg/ml); 37° C., 2 h", "from_the_text": "(§1) The desired plasmid was designed such that the recombinant CES1 would be expressed in mammalian cells with a V5-His tag to facilitate detection and purification. Additionally, another plasmid was generated by inserting a stop codon after CES1A1 gene to yield the constructs expressing CES1 without V5-His tag. […] Thus, only untagged CES1 and its associated mutants were used in the enzymatic hydrolysis study. Two constructs of CES1 mutations, p.Gly143Glu and p.Asp260fs, were generated using a site-directed mutagenesis assay. All constructs were subjected to DNA sequencing analysis to confirm that the desired plasmids were obtained. The identified CES1A1 plasmids (WT, p.Gly143Glu, and p.Asp260fs) were co-transfected with pOG44 plasmid at a ratio of 1:10 into Flp-In™-293 cells using […] (Invitrogen, Carlsbad, Calif.). Additionally, the self-ligated pcDNA5/FRT/V5-His-TOPO® vector was included as a vector control. Twenty-four hours after transfection, cells were washed with PBS and fresh complete medium (Dulbecco's modified Eagle's medium containing 10% fetal bovine serum) was added. […]\n(§2) After attaining approximately 95% confluence, cells were rinsed and harvested in PBS containing 10 mM HEPES (pH 7.4). […] The protein concentration was determined using a Pierce BCA assay kit (Rockford, Ill.).\n(§3) For the study of MPH hydrolysis, the reaction was conducted in 1.5 mL eppendorf tubes with a final S9 concentration of 0.5 mg/mL at a total volume of 100 μL. […] Concentrations of the primary phase I MPH metabolite produced via hydrolysis, ritalinic acid (RA), was determined utilizing an established HPLC method described below.\n(§4) Thus, following the enzymatic assay, the values determined for spontaneous PNP and RA hydrolysis were subtracted from the total PNP and RA production. […] All collected data were fit to the Michaelis-Menten equation, and kinetic parameters were calculated using nonlinear regression analysis with Graphpad Prism software (Graphpad Software Inc., San Diego, Calif.) […]"}, "[2]": {"assay": "Hemodynamic measurements after MPH administration in normal volunteers", "type": "in vivo, human", "conditions": "after 0.3 mg/kg MPH", "from_the_text": "The inventor considered the set of measures for each endpoint to be a multivariate vector, and assessed the Mahalanobis distance for subject's measurements. The Mahalanobis distance, a measure of distance from a central multivariate mean relative to the variance of the endpoints, is useful for identifying outliers via referral to the F distribution. This analysis assumes no explicit model of time effects on the vital signs, but recognizes the potential correlation between the repeated measures over time on each participant, and tests for simultaneous differences from the mean over the set of time points while controlling the Type I error rate. For each of the four endpoint vectors, the inventor tested the a priori hypothesis that the slow metabolizer's measurements were outliers by comparison to Wilks's critical values (α=0.0125, critical value: 13.8).^13 Because only testing outlier status for this single participant was tested, no Bonferroni corrections were made within participants; however, each test was performed at the Bonferroni-corrected α=0.0125 level to adjust for the four endpoints being tested. There were little differences in plasma MPH concentrations between the slow metabolizer and their study peers during the 0-1.5 h time frame (FIG. 6), which is likely due to a delay in tablet disintegration, dissolution and absorption. After this initial period MPH is subject to first-pass metabolism and hCES1 mediated stereoselective hydrolysis and the two concentration vs. time curves rapidly diverge from one another (FIGS. 2-3). Therefore, based on this finding and a visual examination of the data it was decided that a second analysis which excluded measurements taken during the 0-1.5 hr time points would be more appropriate."}, "[3]": {"assay": "Pharmacokinetic study of orally administered racemic MPH in normal volunteers", "type": "in vivo, human", "method": "Analysis of Pharmacokinetic, Hemodynamic, and Statistical Data. Standard pharmacokinetic analyses were applied to the MPH data using WinNonLin software (Pharsight, Mountainview, Calif.) and are described in a previous publication.^10 The AUC, Cmax, and t1/2 were analyzed using the Extreme Studentized Deviate (ESD) single-outlier procedure^12 to determine whether the parameter measurements for the slow metabolizer constituted true statistical outliers. For each parameter, the ESD procedure confirmed the measurement as an outlier at the p<0.01 level. Because this procedure is known to be conservative, the data from the aberrant metabolizer were reassessed using a similar procedure with respect to the normal participants only."}, "[4]": {"assay": "Spontaneous hydrolysis in reaction buffer", "type": "physicochemical", "conditions": "PBS containing 10 mM HEPES, pH 7.4", "method": "Thus, following the enzymatic assay, the values determined for spontaneous PNP and RA hydrolysis were subtracted from the total PNP and RA production. […] All collected data were fit to the Michaelis-Menten equation, and kinetic parameters were calculated using nonlinear regression analysis with Graphpad Prism software (Graphpad Software Inc., San Diego, Calif.)"}, "[5]": {"target": "T2, p.Gly143Glu CES1 (Homo sapiens, UniProt P23141, G143E)", "T2 construct": "inserting a stop codon after CES1A1 gene to yield the constructs expressing CES1 without V5-His tag; expressed in transfected cells", "T2 sequence (P23141 18-567 G143E/Y526T)": "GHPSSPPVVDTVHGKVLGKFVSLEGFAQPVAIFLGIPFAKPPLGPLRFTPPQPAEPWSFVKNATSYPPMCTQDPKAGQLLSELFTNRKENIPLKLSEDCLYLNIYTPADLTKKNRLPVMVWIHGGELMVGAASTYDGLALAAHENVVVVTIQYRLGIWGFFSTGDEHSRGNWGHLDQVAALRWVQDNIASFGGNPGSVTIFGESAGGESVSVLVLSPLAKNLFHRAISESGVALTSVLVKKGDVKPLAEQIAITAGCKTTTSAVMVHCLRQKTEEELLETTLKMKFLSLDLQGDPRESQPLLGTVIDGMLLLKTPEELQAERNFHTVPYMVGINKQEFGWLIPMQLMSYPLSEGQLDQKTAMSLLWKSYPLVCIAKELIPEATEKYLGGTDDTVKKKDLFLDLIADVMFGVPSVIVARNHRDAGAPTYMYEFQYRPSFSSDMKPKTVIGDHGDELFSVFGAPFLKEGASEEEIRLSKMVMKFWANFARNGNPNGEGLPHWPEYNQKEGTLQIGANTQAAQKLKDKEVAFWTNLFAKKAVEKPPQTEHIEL", "assay": "MPH hydrolysis to ritalinic acid by S9 of cells expressing p.Gly143Glu CES1 (HPLC)", "type": "biochemical", "conditions": "S9 500 μg/ml, even at very high S9 concentration (2 mg/ml); 37° C., 2 h", "from_the_text": "as §1, §2, §3, §4"}, "[6]": {"target": "T2, p.Gly143Glu CES1", "assay": "Oseltamivir phosphate hydrolysis by p.Gly143Glu hCES1 S9 (HPLC)", "type": "biochemical", "conditions": "compared to WT enzyme"}, "[7]": {"target": "T1, p.Asp260fs CES1", "assay": "Oseltamivir phosphate hydrolysis by p.Asp260fs hCES1 S9 (HPLC)", "type": "biochemical", "conditions": "measured by conversion to OC"}, "[8]": {"substrate": "CCOC(=O)C1=C[C@@H](OC(CC)CC)[C@H](NC(C)=O)[C@@H](N)C1", "assay": "Oseltamivir phosphate hydrolysis to oseltamivir carboxylate by WT hCES1 S9 (HPLC)", "type": "biochemical, human", "conditions": "other: OP conversion to OC, 37° C., 10 min"}, "[9]": {"substrate": "COC(=O)[C@H](c1ccccc1)[C@H]1CCCCN1", "assay": "purified protein, by the assay type", "conditions": "other: MPH hydrolysis, S9 0.5 mg/mL, 37° C., 2 hours, mean ± S.D. (n = 3)"}}, "data": [{"molecule": "COC(=O)C(c1ccccc1)C1CCCCN1", "note": "(racemic) [MPH, methylphenidate]", "values": [{"measurement": "catalytic activity towards MPH hydrolysis", "setting": "[1]", "result": "too low to be determined"}, {"measurement": "Diastolic Blood Pressure, Maximum Value, Mean (SD)", "setting": "[2]; 19 study peers", "result": "68 (8)"}, {"measurement": "Mean Arterial Pressure, Maximum Value, Mean (SD)", "setting": "[2]; 19 study peers", "result": "85 (8)"}, {"measurement": "Pulse, Maximum Value, Mean (SD)", "setting": "[2]; 19 study peers", "result": "74 (11)"}, {"measurement": "Systolic Blood Pressure, Maximum Value, Mean (SD)", "setting": "[2]; 19 study peers", "result": "120 (10)"}, {"measurement": "Diastolic Blood Pressure, Maximum Value, Outlier", "setting": "[2]; slow metabolizer", "result": 78}, {"measurement": "Mean Arterial Pressure, Maximum Value, Outlier", "setting": "[2]; slow metabolizer", "result": 97}, {"measurement": "Pulse, Maximum Value, Outlier", "setting": "[2]; slow metabolizer", "result": 93}, {"measurement": "Systolic Blood Pressure, Maximum Value, Outlier", "setting": "[2]; slow metabolizer", "result": 138}, {"measurement": "Cmax of slow metabolizer relative to the mean of the other subjects", "setting": "[3]; single oral 0.3 mg/kg racemic MPH, plasma", "result": "approximately 7 fold"}, {"measurement": "stability in reaction buffer", "setting": "[4]", "result": "spontaneously hydrolyzed"}, {"measurement": "catalytic activity towards MPH hydrolysis", "setting": "[5]", "result": "too low to be determined"}]}, {"molecule": "CCOC(=O)C1=C[C@@H](OC(CC)CC)[C@H](NC(C)=O)[C@@H](N)C1", "note": "[OP, oseltamivir phosphate]", "values": [{"measurement": "enzymatic activity on oseltamivir hydrolysis", "setting": "[6]", "result": "Profoundly decreased enzymatic activity"}, {"measurement": "enzymatic activity on oseltamivir hydrolysis", "setting": "[7]", "result": "did not result in any detectable hydrolysis"}, {"measurement": "enzymatic activity on oseltamivir hydrolysis", "setting": "[7]; listed as oseltamivir", "result": "No catalytic activity"}]}, {"molecule": "CCOC(=O)C(c1ccccc1)C1CCCCN1", "note": "(stereo not shown) [ethylphenidate]", "values": [{"measurement": "ethylphenidate concentrations after co-administration of methylphenidate with ethanol", "setting": "[3]; every subject except the slow metabolizer", "result": "Detectable concentrations"}, {"measurement": "ethylphenidate formation after methylphenidate and ethanol administered together", "setting": "[3]; slow metabolizer", "result": "unable to form ethylphenidate"}]}, {"molecule": "WT hCES1 (Homo sapiens) (protein, inserting a stop codon after CES1A1 gene to yield the constructs expressing CES1 without V5-His tag; expressed in transfected cells) GHPSSPPVVDTVHGKVLGKFVSLEGFAQPVAIFLGIPFAKPPLGPLRFTPPQPAEPWSFVKNATSYPPMCTQDPKAGQLLSELFTNRKENIPLKLSEDCLYLNIYTPADLTKKNRLPVMVWIHGGGLMVGAASTYDGLALAAHENVVVVTIQYRLGIWGFFSTGDEHSRGNWGHLDQVAALRWVQDNIASFGGNPGSVTIFGESAGGESVSVLVLSPLAKNLFHRAISESGVALTSVLVKKGDVKPLAEQIAITAGCKTTTSAVMVHCLRQKTEEELLETTLKMKFLSLDLQGDPRESQPLLGTVIDGMLLLKTPEELQAERNFHTVPYMVGINKQEFGWLIPMQLMSYPLSEGQLDQKTAMSLLWKSYPLVCIAKELIPEATEKYLGGTDDTVKKKDLFLDLIADVMFGVPSVIVARNHRDAGAPTYMYEFQYRPSFSSDMKPKTVIGDHGDELFSVFGAPFLKEGASEEEIRLSKMVMKFWANFARNGNPNGEGLPHWPEYNQKEGYLQIGANTQAAQKLKDKEVAFWTNLFAKKAVEKPPQTEHIEL", "values": [{"measurement": "Km", "setting": "[8]", "result": 1381.6, "unit": "µM"}, {"measurement": "Vmax", "setting": "[8]", "result": 145.3, "unit": "nmole/min/mg protein"}]}, {"molecule": "WT CES1 (Homo sapiens) (protein) GHPSSPPVVDTVHGKVLGKFVSLEGFAQPVAIFLGIPFAKPPLGPLRFTPPQPAEPWSFVKNATSYPPMCTQDPKAGQLLSELFTNRKENIPLKLSEDCLYLNIYTPADLTKKNRLPVMVWIHGGGLMVGAASTYDGLALAAHENVVVVTIQYRLGIWGFFSTGDEHSRGNWGHLDQVAALRWVQDNIASFGGNPGSVTIFGESAGGESVSVLVLSPLAKNLFHRAISESGVALTSVLVKKGDVKPLAEQIAITAGCKTTTSAVMVHCLRQKTEEELLETTLKMKFLSLDLQGDPRESQPLLGTVIDGMLLLKTPEELQAERNFHTVPYMVGINKQEFGWLIPMQLMSYPLSEGQLDQKTAMSLLWKSYPLVCIAKELIPEATEKYLGGTDDTVKKKDLFLDLIADVMFGVPSVIVARNHRDAGAPTYMYEFQYRPSFSSDMKPKTVIGDHGDELFSVFGAPFLKEGASEEEIRLSKMVMKFWANFARNGNPNGEGLPHWPEYNQKEGYLQIGANTQAAQKLKDKEVAFWTNLFAKKAVEKPPQTEHIEL", "values": [{"measurement": "Km", "setting": "[9]", "result": "663.5 ± 210.0", "unit": "µM"}, {"measurement": "Vmax", "setting": "[9]", "result": "177.2 ± 29.6", "unit": "pmole/min/mg protein"}, {"measurement": "Vmax/Km", "setting": "[9]", "result": 0.27, "unit": "μl/min/mg protein"}]}]}
